Reference: BindingDB's records for doi:10.1038/nsb921 (Mahidol University, 2003)

Legend:
Experiment in all cases: Antimalarial Testing In Vitro (IC50) and Measurement of Inhibition Constant (Ki)
Conditions in all cases: pH 7; 25 °C
[1] = molecular target: Bifunctional dihydrofolate reductase-thymidylate synthase (Plasmodium falciparum (isolate K1 / Thailand), UniProt Q8I1R6)
Protocol: (§1) The activity of pfDHFR-TS was determined spectrophotometrically using a UV-Vis spectrophotometer.

[2] = molecular target: Bifunctional dihydrofolate reductase-thymidylate synthase [N51I,C59R,S108N,I164L] (Plasmodium falciparum (isolate K1 / Thailand), UniProt Q8I1R6, C59R/I164L/N51I/S108N)
Protocol: as §1

[3] = molecular target: Bifunctional dihydrofolate reductase-thymidylate synthase (Plasmodium falciparum (isolate K1 / Thailand), UniProt P13922)
Protocol: as §1

Sequence of Bifunctional dihydrofolate reductase-thymidylate synthase [N51I,C59R,S108N,I164L] (Q8I1R6 whole entry N51I/C59R/S108N/I164L): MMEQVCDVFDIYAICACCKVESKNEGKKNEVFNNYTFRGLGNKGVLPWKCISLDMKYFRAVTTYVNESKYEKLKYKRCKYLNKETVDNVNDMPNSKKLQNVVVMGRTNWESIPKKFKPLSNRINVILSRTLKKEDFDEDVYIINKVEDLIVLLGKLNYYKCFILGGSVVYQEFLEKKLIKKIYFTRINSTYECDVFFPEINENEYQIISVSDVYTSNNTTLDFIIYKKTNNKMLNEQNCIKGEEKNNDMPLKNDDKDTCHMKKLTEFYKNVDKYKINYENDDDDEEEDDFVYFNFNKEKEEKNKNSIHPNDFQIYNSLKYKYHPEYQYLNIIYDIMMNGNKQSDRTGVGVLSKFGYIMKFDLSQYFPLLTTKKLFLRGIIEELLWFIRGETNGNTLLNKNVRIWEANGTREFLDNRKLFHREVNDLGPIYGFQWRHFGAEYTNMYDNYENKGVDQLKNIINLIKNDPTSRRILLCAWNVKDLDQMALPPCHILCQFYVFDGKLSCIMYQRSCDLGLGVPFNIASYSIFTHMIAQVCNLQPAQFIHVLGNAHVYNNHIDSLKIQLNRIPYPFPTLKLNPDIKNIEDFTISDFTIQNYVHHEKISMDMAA
Sequence of Bifunctional dihydrofolate reductase-thymidylate synthase (Plasmodium falciparum (isolate K1 / Thailand), UniProt Q8I1R6) (Q8I1R6 whole entry): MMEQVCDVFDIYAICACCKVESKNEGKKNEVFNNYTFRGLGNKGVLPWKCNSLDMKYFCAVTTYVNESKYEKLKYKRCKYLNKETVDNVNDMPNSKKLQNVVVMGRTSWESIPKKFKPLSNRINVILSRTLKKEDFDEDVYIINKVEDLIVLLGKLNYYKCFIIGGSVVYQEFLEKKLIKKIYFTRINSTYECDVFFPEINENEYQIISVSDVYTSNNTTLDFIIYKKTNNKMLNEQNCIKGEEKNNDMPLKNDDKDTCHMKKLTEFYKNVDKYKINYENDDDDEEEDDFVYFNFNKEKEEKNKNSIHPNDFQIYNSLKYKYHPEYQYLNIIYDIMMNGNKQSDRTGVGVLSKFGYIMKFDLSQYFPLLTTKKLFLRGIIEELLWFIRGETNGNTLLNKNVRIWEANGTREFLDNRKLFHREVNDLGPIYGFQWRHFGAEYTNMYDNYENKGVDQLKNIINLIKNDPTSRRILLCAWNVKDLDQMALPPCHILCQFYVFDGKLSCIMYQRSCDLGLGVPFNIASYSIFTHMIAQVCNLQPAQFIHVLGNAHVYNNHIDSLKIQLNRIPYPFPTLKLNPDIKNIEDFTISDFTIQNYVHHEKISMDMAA
Sequence of Bifunctional dihydrofolate reductase-thymidylate synthase (Plasmodium falciparum (isolate K1 / Thailand), UniProt P13922) (P13922 whole entry): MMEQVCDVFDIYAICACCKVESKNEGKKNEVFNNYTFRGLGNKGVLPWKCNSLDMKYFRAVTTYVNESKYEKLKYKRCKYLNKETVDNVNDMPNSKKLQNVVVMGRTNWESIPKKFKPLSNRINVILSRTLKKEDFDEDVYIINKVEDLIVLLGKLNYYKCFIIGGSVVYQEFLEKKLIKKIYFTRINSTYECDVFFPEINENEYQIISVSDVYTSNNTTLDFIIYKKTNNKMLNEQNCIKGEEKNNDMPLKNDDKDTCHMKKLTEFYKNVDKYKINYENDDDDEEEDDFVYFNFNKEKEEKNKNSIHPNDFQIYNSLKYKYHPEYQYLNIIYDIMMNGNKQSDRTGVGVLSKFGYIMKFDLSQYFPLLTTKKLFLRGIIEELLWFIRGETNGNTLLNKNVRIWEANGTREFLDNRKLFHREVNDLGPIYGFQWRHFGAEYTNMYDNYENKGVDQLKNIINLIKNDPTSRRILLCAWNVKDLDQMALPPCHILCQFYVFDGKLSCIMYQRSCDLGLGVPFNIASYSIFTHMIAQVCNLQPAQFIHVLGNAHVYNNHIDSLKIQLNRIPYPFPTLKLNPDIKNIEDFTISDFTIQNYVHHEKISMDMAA

| SMILES | IC50 [1] [nM] | Ki [1] [nM] | IC50 [2] [nM] | Ki [2] [nM] | IC50 [3] [nM] | Ki [3] [nM] |
| --- | --- | --- | --- | --- | --- | --- |
| CC1(C)N=C(N)N=C(N)N1c1ccc(Cl)cc1 | 37 | 0.3 | > 100000 | 254 | 2400 | 6.2 |
| CC1(C)N=C(N)N=C(N)N1OCCCOc1cc(Cl)c(Cl)cc1Cl [6,6-dimethyl-1-[3-(2,4,5-trichlorophenoxy)propoxy]-1,6-dihydro-1,3,5-triazine-2,4-diamine] | 0.57 | 0.011 | 18 | 0.037 | 2.3 | 0.02 |
